Values of other authors in patent US20030129629A1, “Methods and compositions for the identification, assessment, prevention, and therapy of human cancers” (Millennium Pharmaceuticals, Inc., priority 2000, published 2003).
Read-outs that look alike come from different tables or passages of the source.

System: 60 cancer cell lines (NCI 60 cancer cell line series)
Details: cited from earlier work

## CC[C@@]1(O)C(=O)OCc2c1cc1n(c2=O)Cc2cc3c(CN(C)C)c(O)ccc3nc2-1 [Topotecan]
CNS SF-268 CL12014
  −Log (GI50): 7.7
Leukemia CCRF-CEM(I) CL7003
  −Log (GI50): 7.9
Leukemia MOLT-4 CL7006
  −Log (GI50): 7.9
NSCLC HOP-62 CL1026
  −Log (GI50): 7.9
NSCLC NCI-H23(I) CL1001
  −Log (GI50): 7.4
NSCLC NCI-H460 CL1021
  −Log (GI50): 7.7
